The text below walks through data of PMC7183711, “Co-production of gallic acid and a novel cell-associated tannase by a pigment-producing yeast, Sporidiobolus ruineniae A45.2” (Microbial Cell Factories, 2020).

In the assay the test system is T1, purified tannase (PT); cell-associated tannase (CAT) of Sporidiobolus ruineniae A45.2.
T1 construct: gene tannin acyl hydrolase; native enzyme released from cell wall with Triton X-100, Q-Sepharose purified
Kind of assay: rhodanine assay of released gallic acid, A520; Michaelis-Menten fit. Format: biochemical, Rhodosporidiobolus ruineniae. The note with it: 100 mM sodium phosphate pH 6.5, 30 °C, 10 min; 0.25-12.5 mM methyl gallate; purified free enzyme.

The term Km denotes the substrate concentration at which the rate is half of its maximum. For `COC(=O)c1cc(O)c(O)c(O)c1` [methyl gallate], the Km turned out to be 2600 ± 400 µM.
